Experimental data as given in article PMC11438102, “Modulation of cannabinoid receptor 2 alters neuroinflammation and reduces formation of alpha-synuclein aggregates in a rat model of nigral synucleinopathy” (Journal of Neuroinflammation, 2024).

Legend:
[1] = system: human Asyn (pSer129, proteinase K-resistant, total) in substantia nigra; test: Immunohistochemistry of Asyn species in substantia nigra, optical density; assay type: in vivo; conditions: rat low cohort, 6 mg/kg i.p. daily 7 weeks
Description: Rats were administered unilateral injections of AAV2/5-human wild-type (WT) Asyn at titers of 2.9–4.3 × 10^11 vector genomes (vg)/mL (termed “low cohort”), which was previously shown to not induce nigral neurotoxicity [27]. Thereby, generating a model with overexpression of human WT Asyn and Asyn-mediated neuroinflammation. One week after surgery, animals were randomly selected to receive daily systemic injections of either SMM-189 (intraperitoneal (i.p.), 6 mg/kg, n = 12) or vehicle (i.p., n = 12) and followed for 8 weeks (Figs. 1; n = 2 rats per group were removed due to poor nigral targeting). […] After blood collection, animals were transcardially perfused with ice-cold PBS and the frontal cortex frozen for gene analysis, the striatum frozen for western blotting analysis, and the midbrain post-fixated in 4% PFA to be processed for immunohistochemistry. A second low cohort of rats (SMM-189 n = 6 or vehicle n = 3 with n = 2 removed due to poor nigral targeting) completed the study and provided extra tissue to perform additional immunohistochemical and western blotting analyses.
Brains were post-fixed in 4%PFA for 48 h and transferred to 30% sucrose and cut at 40 μm on a freezing microtome. In brief, endogenous peroxidase was quenched with 3% hydrogen peroxide, blocked with 8% normal serum, avidin (Vector Cat#SP-2001) and 0.1% Triton-X and incubated overnight at 4°C with biotin (Vectorlabs Cat#SP-2001), normal serum and primary antibodies specific for Asyn (Clone 4B12; BioLegend Cat# 807801, RRID: AB_2564730), pSer129 Asyn (Clone EP1536Y; Abcam Cat# ab51253, RRID: AB_869973), CD68 (Bio-Rad Cat# MCA341R, RRID: AB_2291300), MHCII (Bio-Rad Cat# MCA46GA, RRID: AB_567369), and CD163 (Bio-Rad Cat# MCA342A, RRID: AB_2074557). Tissue was incubated in appropriate biotinylated secondary antibodies (1:200), amplified with Vectastain ABC kit (Vectorlabs Cat#PK-6100) and developed with diaminobenzidine tablets or diaminobenzidine drop kit with nickel (Vector Cat#SK-4100) for CD68 immunostaining. […]

[2] = system: CD206, YM1, TGFb, TNF, CB2 gene expression; test: qPCR of immune markers in frontal cortex and PBMCs; assay type: in vivo; conditions: rat low cohort
Description: PBMCs were isolated from blood of low cohort rats at euthanasia (8 weeks) for qPCR analysis of immune genes and from blood of high cohort rats at baseline, 4 and 8 weeks after AAV2/5-human WT Asyn and evaluated with flow cytometry for a longitudinal immunophenotype assessment. Red blood cells were lysed using 1x RBC lysis buffer (Biolegend Cat#420301) for 5 min in the dark. Lysis buffer was neutralized by adding 1x HBSS (Gibco Cat#14175095). Cells were pelleted by centrifugation at 400g for 5 min, supernatant removed, and cells washed with HBSS. For the high cohort, cells were resuspended in 200μL of PBS and transferred to a 96-well v-bottom plate for flow cytometry staining. For low cohort, 10,000 cells were lysed in 600μL RLT lysis buffer (Qiagen Cat#79216) + 1% BME, further homogenized by centrifugation through a QiaShredder column (2 min at 21,130g). Lysate was then stored at -80°C and later processed for RNA extraction.
Total RNA was extracted from the frontal cortex and from PBMCs of low cohort animals and standardized across all samples and groups. In short, tissue was suspended in Trizol and homogenized with a TissueLyser (Retsch). Homogenate was incubated with chloroform and RNA separated by centrifugation of […] for 15 min at 4°C. RNA was further isolated with a RNAeasy mini kit (Qiagen). The RNA (1 µg) was then reverse transcribed to cDNA and analyzed with primers (Integrated DNA Technologies) for pro-inflammatory and anti-inflammatory immune markers and CB2 (Table 1) by qRT-PCR using protocols previously published. Resulting threshold cycle (Ct) values were analyzed by the 2-ΔΔCt method using the AAV2/5-hαsyn + vehicle as the control group and normalized to GAPDH for PBMCs and HPRT1 for frontal cortex as the housekeeping genes.

[3] = system: tyrosine hydroxylase, phosphorylated tyrosine hydroxylase, dopamine transporter, IBA1, GFAP in striatum; test: Western immunoblot of dopaminergic and glial markers in striatal lysates; assay type: in vivo; conditions: rat low cohort, 6 mg/kg i.p. daily 7 weeks, vs vehicle
Description: Striatal tissue from successfully targeted low cohort rats was homogenized in ice-cold TriZOL lysed using the TissueLyser system. Homogenates were incubated with 20% chloroform and centrifuged at 13,523g for 15 min at 4°C. Protein pellets were washed in methanol twice and resuspended in 1% SDS and heated to 50°C. Total protein concentrations were measured using Pierce BCA Protein Assay Kit and equal amount of protein (10–20 µg) mixed with Laemmli sample buffer were loaded in 4–20% TGX precast gels (Biorad) for gel electrophoresis. Protein was transferred to a PVDF membrane (Biorad) using a Trans Blot Turbo Transfer System, the immunoblots were immediately fixed with 0.4% paraformaldehyde (PFA) for 30 min and stained for total protein using Revert 700 (Licor) for reliable normalization. Revert staining was captured and measured on the Licor Odyssey at 700 nm for 30 s.
Non-specific protein binding was blocked with 5% milk and 0.1% Tween-20 in TBS for 1 h at room temperature, and membranes incubated with primary antibodies overnight at 4°C. The blots were washed with 0.1%TBS-Tween-20, incubated with appropriate horseradish peroxidase-conjugated secondary antibodies (1:2000) at room temperature for 1 h and developed with SuperSignal West Femto Enhancer or Pico Peroxide solutions under a chemiluminescent detection imaging system (Licor Odyssey). The density of the band was quantified using StudioLite software. Relative expression levels were normalized to its own total protein and to vehicle average expression level.

[4] = Weekly body weights of AAV2/5-human WT Asyn rats; assay type: in vivo, rat; conditions: low and high cohorts, 6 mg/kg i.p. daily, over 8 weeks, vs vehicle
Description: Sprague Dawley male rats (16–18 weeks of age, 400–525 g) were purchased from Charles River Laboratories and acclimated to Emory University animal facilities. Rats were pair housed in standard plexiglass cages under normal 12-hr light cycles and handled in accordance with protocols approved by the IACUC of Emory University in Atlanta, GA. Rats were administered unilateral injections of AAV2/5-human wild-type (WT) Asyn at titers of 2.9–4.3 × 10^11 vector genomes (vg)/mL (termed “low cohort”), which was previously shown to not induce nigral neurotoxicity. Thereby, generating a model with overexpression of human WT Asyn and Asyn-mediated neuroinflammation. One week after surgery, animals were randomly selected to receive daily systemic injections of either SMM-189 (intraperitoneal (i.p.), 6 mg/kg, n = 12) or vehicle (i.p., n = 12) and followed for 8 weeks (Figs. 1; n = 2 rats per group were removed due to poor nigral targeting). The dose of SMM-189 was based on a pharmacokinetic study in mice determining therapeutic brain-blood ratios as described below. […]
An additional cohort of rats (termed “high cohort”) was evaluated to determine effects of SMM-189 on immune cell populations in the brain, resident or infiltrating, and the periphery as measured by flow cytometry (Fig. 1). […] Brains were collected at endpoints, and brain immune cells isolated and evaluated using multicolor flow cytometry. […]

[5] = frontal cortex, relative to vehicle

In the case of `O=C(c1ccccc1)c1cc(O)c(-c2cc(Cl)cc(Cl)c2)c(O)c1` [SMM-189], the “total human Asyn in substantia nigra, optical density” value ([1]; clone 4B12, vs vehicle) is reported as “not different”, the “pS129-ir optical density in substantia nigra, normalized to vehicle” value ([1]; lesioned nigra) is reported as “reduced” and the “proteinase-K resistant Asyn in substantia nigra, optical density” value ([1]; vs vehicle) is reported as “decreased”. The TGFβ gene expression ([2]; PBMCs, relative to vehicle) was “increased”, the TNF transcript ([2]; endpoint PBMCs, relative to vehicle) was “decreased” and the CB2 gene expression ([2]; frontal cortex and PBMCs, between groups) was “not different”. The CD206 gene expression [2, 5] was “increased”, the YM1 gene expression [2, 5] was “increased” and the “myeloid marker IBA1 in striatum, western” value [3] was “no differences”. For the same compound, the “phosphorylated tyrosine hydroxylase in striatal lysates” value [3] was “no significant changes”, the “tyrosine hydroxylase in striatal lysates” value [3] was “no significant changes” and the “astrocyte marker GFAP expression levels in striatum, western” value ([3]; p = 0.0746) was “trend to decrease”. For the same compound, the “dopamine transporter in striatal lysates” value ([3]; trend to increase p = 0.051) was “no significant changes” and the “Rats weight, difference between treatment groups” value [4] was “no significant differences”.
